Consider 3 compounds from patent US9242937B2, “Pharmaceutically active disubstituted pyridine derivatives” (Bayer Intellectual Property GmbH, priority 2011, dated 2016).

pIC50, pKd: −log10 of the molar value.

One test concerns the target T1, CDK9/Cyclin T1 (Homo sapiens, UniProt P50750).
T1 construct: purchased Invitrogen
Briefly: LanthaScreen Eu Kinase Binding Assay, CDK9/Cyclin T1. The settings on record: tracer 236, read-out: CDK9/Cyclin T1 (activity range), Kd. The protocol:
(§1) This protocol describes how the LanthaScreen Eu Kinase Binding Assay was performed to determine dissociation constants (Kd) of compounds of general formula (I) and CDK/Cyclin complexes. The principle behind this assay is based upon the binding and displacement of an Alexa Fluor 647-labeled tracer, which binds to the active site of kinases. Binding of the tracer to the kinase is detected using a Eu-labeled antibody. Simultaneous binding of both the tracer and antibody to the kinase gives rise to a FRET-signal. Binding of an inhibitor to the kinase competes for binding with the tracer, resulting in a loss of FRET.
(§2) The compounds of general formula (I) summarized in Table 1 were diluted from a 10 mM DMSO stock solution 1:10 in a total volume of 15 μL DMSO. This compound predilution was then serial diluted 1:3 over 8 steps in DMSO and briefly spun down. Each compound solution was now diluted 1:33.33 in kinase buffer (HEPES: 20 mM, pH: 8.0; MgCl2: 10 mM; DTT: 1 mM; Brij-35: 0.01%), mixed thoroughly and spun down. For every sample, 5 μL of the diluted compound were mixed with 5 μL tracer working solution (e.g. 60 nM tracer 236 in kinase buffer for CDK2/Cyclin A) and 5 μL CDK/Cyclin/Anti-GST-AB-working solution (e.g. 15 nM CDK2/Cyclin A, 1:250 dilution of Anti-GST-AB in kinase buffer) in a well of a small volume 384 well plate (Corning Incorporated, Corning, N.Y., USA; order no. 3673). The tracer concentration was adjusted to its dissociation constant (Kd) for the CDK/Cyclin, which was 30 nM for CDK2/Cyclin A, CDK7/Cyclin H and CDK9/Cyclin T1, 20 nM for CDK8/Cyclin C, and 35 nM for CDK9/Cyclin K. For negative controls, in each well 5 μL of DMSO working solution (3% DMSO diluted in kinase buffer) was mixed with 5 μL Anti-GST-AB working solution (e.g. 1:250 dilution of Anti-GST-AB in kinase buffer for CDK2/Cyclin A) and 5 μL Tracer working solution (e.g. 60 nM Tracer 236 in kinase buffer for CDK2/Cyclin A). For positive controls, in each well 5 μL of DMSO working solution (3% DMSO diluted in kinase buffer) was mixed with 5 μL CDK/Cyclin/Anti-GST-AB-working solution: (e.g. 15 nM CDK2/Cyclin A, 1:250 dilution of Anti-GST-AB in kinase buffer) and 5 μL Tracer working solution (e.g. 60 nM Tracer 236 in kinase buffer for CDK2/Cyclin A). Positive and negative controls were calculated from at least 8 different sample wells. The 384 well plates were mixed in a Teleshaker plate mixer (Beckman Coulter, Brea, Calif., USA) at 2000 rpm for 40 sec, and incubated for 1 h at room temperature before reading. The FRET signal was measured at 340 nm excitation, 665 nm and 615 nm emission (for the kinase tracer and LanthaScreen Eu-AB, respectively) with an Envision spectrophotometer (Perkin Elmer, Waltham, Mass., USA) with 50 μs delay and 300 μs integration time. Kd values were determined from the sigmoidal dose response curves with the software Quattro Workflow (Quattro GmbH, Munich, Germany).
(Time-resolved FRET reads energy transfer from a long-lived donor to a nearby acceptor.)

Test [1] addresses T2, CDK7/CyclinH/MAT1 (Homo sapiens, UniProt P50613).
T2 construct: purchased Carna Biosciences
Kind of test: LanthaScreen Eu Kinase Binding Assay, CDK7. The settings on record: tracer 236, read-out: CDK7 (activity range), Kd. The protocol:
as §1, §2

In test [2] the target is T3, CDK2/CyclinA (Homo sapiens, UniProt P24941).
T3 construct: purchased Proqinase
Briefly: LanthaScreen Eu Kinase Binding Assay, CDK2. The settings on record: tracer 236, read-out: CDK2 (activity range), Kd. As to the method: as §1, §2

In the next test the target is T4, CDK9 (Homo sapiens, UniProt P50750).
T4 construct: purchased Invitrogen
T4 sequence (P50750 whole entry): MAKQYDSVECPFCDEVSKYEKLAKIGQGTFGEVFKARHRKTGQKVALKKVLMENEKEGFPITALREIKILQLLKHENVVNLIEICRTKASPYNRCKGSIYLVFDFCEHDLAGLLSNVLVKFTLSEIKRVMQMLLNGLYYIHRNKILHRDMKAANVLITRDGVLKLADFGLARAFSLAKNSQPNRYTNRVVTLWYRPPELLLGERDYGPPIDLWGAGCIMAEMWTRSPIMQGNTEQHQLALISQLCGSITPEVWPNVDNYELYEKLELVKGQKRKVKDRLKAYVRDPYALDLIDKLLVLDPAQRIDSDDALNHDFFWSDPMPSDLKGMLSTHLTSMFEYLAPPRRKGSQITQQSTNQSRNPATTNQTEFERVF
Kind of test: Lance Ultra KinaSelect Assay, CDK9. In kind it is biochemical. The settings on record: ULight MBP substrate; cyclin partner not stated in Table 5; read-out: CDK9 LANCE assay (activity range), IC50. As to the method: (§3) This protocol describes how the Lance Ultra KinaSelect Assay was performed to determine half maximal inhibitory concentration (IC50) of compounds of general formula (I) and CDK/Cyclin complexes. The principle behind this enzymatic assay is based upon the phosphorylation of the ULight-Peptide Substrat. It is detected by using a specific EU-labeled anti-phospho peptide antibody. The binding of the Eu-labeled anti-phospho peptide antibody to the phosphorylated ULight labeled peptide gives rise to a FRET-signal. Binding of an inhibitor to the kinase prevents phosphorylation of the ULight-MBP Substrat, resulting in a loss of FRET.
(§4) The compounds of general formula (I) summarized in Table 5 were diluted from a 10 mM DMSO stock solution 1:10 in a total volume of 15 μL DMSO. This compound predilution was then serial diluted 1:3 over 8 steps in DMSO and briefly spun down. Each compound solution was now diluted 1:20 in Enzymatic Buffer (HEPES: 50 mM, pH: 7.5; MgCl2: 10 mM; EGTA: 1 mM; DTT: 2 mM; Tween-20: 0.01%), mixed thoroughly and spun down. For every sample, 2 μL of the diluted compound were mixed with 6 μL CDK/Cyclin/Substrat solution and 2 μL ATP solution in a well of a small volume 384 well plate (Corning Incorporated, Corning, N.Y., USA; order no. 3673). The CDK/Cyclin was diluted to the appropriate concentration (see Table 3) and the ATP concentration was adjusted to its […] for the CDK/Cyclin, which was 3 μM for CDK2/Cyclin A, 20 μM for CDK1/Cyclin B1, 25 μM for CDK7/Cyclin H and CDK9/Cyclin T1, 55 μM for CDK6/Cyclin D3, 90 μM for CDK4/Cyclin D1 and 125 μM for CDK9/Cyclin K. For negative controls, in each well 2 μL of DMSO solution (1% final DMSO assay concentration) was mixed with 6 μL substrate solution (50 nM ULight MBP final assay concentration) and 2 μL ATP solution (appropriate final concentration see Table 3). For positive controls, in each well 2 μL of DMSO solution (1% final DMSO assay concentration) was mixed with 6 μL CDK/Cyclin/Substrat (appropriate final concentration see Table 3) and 2 μL Tracer ATP solution (appropriate final concentration see Table 3). Positive and negative controls were calculated from at least 8 different sample wells. The 384 well plates were mixed in a Teleshaker plate mixer (Beckman Coulter, Brea, Calif., USA) at 2000 rpm for 40 sec, and incubated for 1 h at room temperature. Before reading, 10 μL the detection buffer (Lance Detection Buffer 1×; EDTA: […]; Eu-Anti-P-MBP: see Table 3) was added. The FRET signal was measured at 340 nm excitation, 665 nm and 615 nm emission (for the kinase tracer and LanthaScreen Eu-AB, respectively) with an Envision spectrophotometer (Perkin Elmer, Waltham, Mass., USA) with 50 μs delay and 300 μs integration time. IC50 values were determined from the sigmoidal dose response curves with the software Quattro Workflow (Quattro GmbH, Munich, Germany).

Test [3] deals with T3, CDK2/CyclinA. Kind of test: Lance Ultra KinaSelect Assay, CDK2. The settings on record: ULight MBP substrate, ATP 3 μM; read-out: CDK2 LANCE assay (activity range), IC50. In kind it is biochemical. As to the method:
as §3, §4

In test [4] the target is T2, CDK7/CyclinH/MAT1. Kind of test: Lance Ultra KinaSelect Assay, CDK7. In kind it is biochemical. The settings on record: ULight MBP substrate, ATP 25 μM; read-out: CDK7 LANCE assay (activity range), IC50. The protocol:
as §3, §4

T1 sequence (P50750 whole entry): as above
T1 sequence (O60563 whole entry partner): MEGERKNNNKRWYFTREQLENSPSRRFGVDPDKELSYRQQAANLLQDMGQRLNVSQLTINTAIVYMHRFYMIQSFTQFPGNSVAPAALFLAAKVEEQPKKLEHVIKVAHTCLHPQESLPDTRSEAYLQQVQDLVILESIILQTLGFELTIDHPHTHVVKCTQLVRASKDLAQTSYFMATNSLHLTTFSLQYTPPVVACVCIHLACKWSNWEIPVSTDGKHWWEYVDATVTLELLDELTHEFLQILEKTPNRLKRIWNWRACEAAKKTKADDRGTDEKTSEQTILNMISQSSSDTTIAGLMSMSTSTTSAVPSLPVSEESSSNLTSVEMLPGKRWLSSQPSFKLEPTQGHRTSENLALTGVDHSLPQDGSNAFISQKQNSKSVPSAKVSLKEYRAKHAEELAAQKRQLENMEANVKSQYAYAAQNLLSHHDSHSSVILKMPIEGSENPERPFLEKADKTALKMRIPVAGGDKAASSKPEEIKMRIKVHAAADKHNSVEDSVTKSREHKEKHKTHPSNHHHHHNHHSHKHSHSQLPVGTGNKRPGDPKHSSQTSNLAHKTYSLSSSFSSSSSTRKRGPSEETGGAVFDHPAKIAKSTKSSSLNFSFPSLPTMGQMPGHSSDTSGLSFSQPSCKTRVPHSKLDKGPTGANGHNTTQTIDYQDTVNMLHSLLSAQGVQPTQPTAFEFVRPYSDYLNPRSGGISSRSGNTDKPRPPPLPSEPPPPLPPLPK
T2 sequence (P50613 whole entry): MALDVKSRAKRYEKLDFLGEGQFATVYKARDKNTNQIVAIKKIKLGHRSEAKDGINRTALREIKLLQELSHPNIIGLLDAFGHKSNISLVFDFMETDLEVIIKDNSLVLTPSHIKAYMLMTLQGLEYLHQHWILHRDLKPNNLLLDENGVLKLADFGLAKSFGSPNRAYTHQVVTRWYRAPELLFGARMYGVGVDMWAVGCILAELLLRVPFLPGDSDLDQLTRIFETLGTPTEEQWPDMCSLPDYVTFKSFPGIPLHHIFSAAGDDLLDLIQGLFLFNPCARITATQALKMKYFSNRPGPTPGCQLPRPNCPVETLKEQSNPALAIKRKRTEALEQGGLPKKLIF
T2 sequence (P51946 whole entry partner): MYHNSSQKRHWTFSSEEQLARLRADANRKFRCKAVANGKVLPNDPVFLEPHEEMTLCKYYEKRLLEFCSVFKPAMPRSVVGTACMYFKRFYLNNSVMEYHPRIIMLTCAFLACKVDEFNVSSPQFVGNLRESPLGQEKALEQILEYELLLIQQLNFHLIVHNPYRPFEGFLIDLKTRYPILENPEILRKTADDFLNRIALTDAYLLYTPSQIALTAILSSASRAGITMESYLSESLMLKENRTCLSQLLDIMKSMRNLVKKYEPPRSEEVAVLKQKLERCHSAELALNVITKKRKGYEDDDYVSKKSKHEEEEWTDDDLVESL
T2 sequence (P51948 whole entry partner): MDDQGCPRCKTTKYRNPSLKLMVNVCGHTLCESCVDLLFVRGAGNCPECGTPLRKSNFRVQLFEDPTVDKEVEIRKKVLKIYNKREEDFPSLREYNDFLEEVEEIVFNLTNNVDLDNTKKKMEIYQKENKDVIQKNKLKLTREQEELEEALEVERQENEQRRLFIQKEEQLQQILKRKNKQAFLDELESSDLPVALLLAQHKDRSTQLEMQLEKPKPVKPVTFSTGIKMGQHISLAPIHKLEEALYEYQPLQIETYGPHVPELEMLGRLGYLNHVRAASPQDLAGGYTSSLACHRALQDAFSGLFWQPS

For `COc1cc(F)ccc1-c1ccnc(Nc2cccc(S(=O)(=O)NC(C)(C)C)c2)c1` [Compound D2, N-(tert-Butyl)-3-[(4-(4-fluoro-2-methoxyphenyl)pyridin-2-yl)amino]-benzenesulfonamide], the pKd at CDK9/Cyclin T1 is 5.00 to 6.00; at CDK7/CyclinH/MAT1 [1] it was less than 5.00.

For orientation: pIC50 means the negative decadic logarithm of the IC50, by convention in mol/L. Turning to `COc1ccccc1-c1ccnc(Nc2cccc(CS(N)(=O)=O)c2)c1` [Compound G2, [3-((4-(2-Methoxyphenyl)pyridin-2-yl)amino)phenyl]-methanesulfonamide], the pKd was more than 7.00 on CDK9/Cyclin T1, less than 5.00 on CDK7/CyclinH/MAT1 [1] and more than 7.00 at CDK2/CyclinA [2]. For the same compound, the pIC50 is more than 7.00 at CDK9, 6.00 to 7.00 on CDK2/CyclinA [3] and less than 5.00 on CDK7/CyclinH/MAT1 [4].

In the case of `COc1ccccc1-c1ccnc(Nc2cccc(CCS(N)(=O)=O)c2)c1` [Compound H1, 2-[3-((4-(2-Methoxyphenyl)pyridin-2-yl)amino)phenyl]-ethanesulfonamide], the pKd is more than 7.00 on CDK9/Cyclin T1, less than 5.00 at CDK7/CyclinH/MAT1 [1] and 6.00 to 7.00 at CDK2/CyclinA [2]. The pIC50 was more than 7.00 at CDK9, 5.00 to 6.00 at CDK2/CyclinA [3] and less than 5.00 at CDK7/CyclinH/MAT1 [4].
